From patent publication US9695155B2, “Herbicidal substituted pyrimidinyloxy benzene compounds” (E. I. DU PONT DE NEMOURS AND COMPANY, priority 2013, dated 2017)

How the values were obtained:
barnyardgrass [1] = assay: Test A preemergence; type: in vivo, Echinochloa crus-galli
Method in brief: (§1)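 Visual 0–100 rating (100 = complete control) taken about 10 d post-treatment relative to untreated checks. Preemergence: directed soil spray on sown loam/sand pots. Postemergence: seedlings 2–10 cm, 1–2 leaf. Non-phytotoxic solvent formulation with surfactant.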

large (Lg) crabgrass [2] = assay: Test A preemergence; type: in vivo, Digitaria sanguinalis
Method in brief: as §1

giant foxtail [3] = assay: Test A preemergence; type: in vivo, Setaria faberii
Method in brief: as §1

morningglory [4] = assay: Test A preemergence; type: in vivo, Ipomoea spp.
Method in brief: as §1

pigweed [5] = assay: Test A preemergence; type: in vivo, Amaranthus retroflexus
Method in brief: as §1

velvetleaf [6] = assay: Test A preemergence; type: in vivo, Abutilon theophrasti
Method in brief: as §1

wheat [7] = assay: Test A preemergence; type: in vivo, Triticum aestivum
Method in brief: as §1

corn [8] = assay: Test A preemergence; type: in vivo, Zea mays
Method in brief: as §1

barnyardgrass [9] = assay: Test A postemergence; type: in vivo, Echinochloa crus-galli
Method in brief: as §1

large (Lg) crabgrass [10] = assay: Test A postemergence; type: in vivo, Digitaria sanguinalis
Method in brief: as §1

giant foxtail [11] = assay: Test A postemergence; type: in vivo, Setaria faberii
Method in brief: as §1

morningglory [12] = assay: Test A postemergence; type: in vivo, Ipomoea spp.
Method in brief: as §1

pigweed [13] = assay: Test A postemergence; type: in vivo, Amaranthus retroflexus
Method in brief: as §1

velvetleaf [14] = assay: Test A postemergence; type: in vivo, Abutilon theophrasti
Method in brief: as §1

wheat [15] = assay: Test A postemergence; type: in vivo, Triticum aestivum
Method in brief: as §1

corn [16] = assay: Test A postemergence; type: in vivo, Zea mays
Method in brief: as §1

rice = assay: Test B flooded paddy test; type: in vivo, Oryza sativa; details: Flood, 250 g ai/ha; 0 to 100 scale where 0 is no effect and 100 is complete control
Method: (§2) Plant species in the flooded paddy test selected from rice (Oryza sativa), sedge, umbrella (small-flower umbrella sedge, Cyperus difformis), (Heteranthera limosa), and barnyardgrass (Echinochloa crus-galli) were grown to the 2-leaf stage for testing. At time of treatment, test pots were flooded to 3 cm above the soil surface, treated by application of test compounds directly to the paddy water, and then maintained at that water depth for the duration of the test. Treated plants and controls were maintained in a greenhouse for 13 to 15 days, after which time all species were compared to controls and visually evaluated. Plant response ratings, summarized in Table B, are based on a scale of 0 to 100 where 0 is no effect and 100 is complete control. A dash (-) response means no test result.

sedge, umbrella = assay: Test B flooded paddy test; type: in vivo, Cyperus difformis; details: Flood, 250 g ai/ha; 0 to 100 scale where 0 is no effect and 100 is complete control
Method: as §2

Heteranthera limosa = assay: Test B flooded paddy test; type: in vivo; details: Flood, 250 g ai/ha; 0 to 100 scale where 0 is no effect and 100 is complete control
Method: as §2

barnyardgrass [17] = assay: Test B flooded paddy test; type: in vivo, Echinochloa crus-galli; details: Flood, 250 g ai/ha; 0 to 100 scale where 0 is no effect and 100 is complete control
Method: as §2

[18] = 500 g ai/ha, 0 to 100 scale where 0 is no effect and 100 is complete control
[19] = 125 g ai/ha, 0 to 100 scale, 0 no effect, 100 complete control
[20] = 1000 g ai/ha, 0 to 100 scale, 0 no effect, 100 complete control, approx. 10 days
[21] = 1000 g ai/ha, 0 to 100 scale, 0 no effect, 100 complete control

With Brc1cnn(-c2ccccc2Oc2ncccn2)c1 [Compound 275] the “Barnyardgrass plant response rating (0 to 100 scale, 0 is no effect, 100 is complete control)” value (barnyardgrass [1]; 125 g ai/ha) was 0, the “Barnyardgrass plant response rating” value (barnyardgrass [1]; [18]) was 0 and the “Crabgrass, Large plant response rating (0 to 100 scale)” value (large (Lg) crabgrass [2]; 125 g ai/ha) was 0. The “Crabgrass, Large plant response rating” value (large (Lg) crabgrass [2]; [18]) was 70, the “Foxtail, Giant plant response rating (0 to 100 scale)” value (giant foxtail [3]; 125 g ai/ha) was 0 and the “Foxtail, Giant plant response rating” value (giant foxtail [3]; [18]) was 70. For the same compound, the “Morningglory plant response rating (0 to 100 scale)” value (morningglory [4]; 125 g ai/ha) was 0, the “Morningglory plant response rating” value (morningglory [4]; [18]) was 0 and the “Pigweed plant response rating (0 to 100 scale)” value (pigweed [5]; 125 g ai/ha) was 80. The “Pigweed plant response rating” value (pigweed [5]; [18]) was 90, the “Velvetleaf plant response rating (0 to 100 scale)” value (velvetleaf [6]; 125 g ai/ha) was 20 and the “Velvetleaf plant response rating” value (velvetleaf [6]; [18]) was 60. For the same compound, the “Wheat plant response rating (0 to 100 scale)” value (wheat [7]; 125 g ai/ha) was 0, the “Wheat plant response rating” value (wheat [7]; [18]) was 0 and the “Corn plant response rating (0 to 100 scale)” value (corn [8]; 125 g ai/ha) was 0. For the same compound, the “Corn plant response rating” value (corn [8]; [18]) was 0, the “Plant response rating, Barnyardgrass” value (barnyardgrass [9]; [19]) was 0 and the “Plant response rating, Barnyardgrass” value (barnyardgrass [9]; [18]) was 0. For the same compound, the “Plant response rating, Crabgrass, Large” value (large (Lg) crabgrass [10]; [19]) was 0, the “Plant response rating, Crabgrass, Large” value (large (Lg) crabgrass [10]; [18]) was 20 and the “Plant response rating, Foxtail, Giant” value (giant foxtail [11]; [19]) was 0. For the same compound, the “Plant response rating, Foxtail, Giant” value (giant foxtail [11]; [18]) was 30, the “Plant response rating, Morningglory” value (morningglory [12]; [19]) was 10 and the “Plant response rating, Morningglory” value (morningglory [12]; [18]) was 50. The “Plant response rating, Pigweed” value (pigweed [13]; [19]) was 80, the “Plant response rating, Pigweed” value (pigweed [13]; [18]) was 90 and the “Plant response rating, Velvetleaf” value (velvetleaf [14]; [19]) was 60. The “Plant response rating, Velvetleaf” value (velvetleaf [14]; [18]) was 90, the “Plant response rating, Wheat” value (wheat [15]; [19]) was 0 and the “Plant response rating, Wheat” value (wheat [15]; [18]) was 0. The “Plant response rating, Corn” value (corn [16]; [19]) was 0, the “Plant response rating, Corn” value (corn [16]; [18]) was 0 and the “Plant response rating, Rice” value (rice) was 15. For the same compound, the “Plant response rating, Sedge, Umbrella” value (sedge, umbrella) was 0, the “Plant response rating, Ducksalad” value (Heteranthera limosa) was 30 and the “Plant response rating, Barnyardgrass” value (barnyardgrass [17]) was 15.
With C[Si](C)(C)c1cn(-c2ccccc2Oc2ncc(Cl)cn2)nn1 [Compound 297] the “Barnyardgrass plant response rating” value (barnyardgrass [1]; [20]) was 10, the “Crabgrass, Large plant response rating” value (large (Lg) crabgrass [2]; [20]) was 90 and the “Foxtail, Giant plant response rating” value (giant foxtail [3]; [20]) was 80. For the same compound, the “Morningglory plant response rating” value (morningglory [4]; [20]) was 0, the “Pigweed plant response rating” value (pigweed [5]; [20]) was 70 and the “Velvetleaf plant response rating” value (velvetleaf [6]; [20]) was 50. The “Wheat plant response rating” value (wheat [7]; [20]) was 0, the “Corn plant response rating” value (corn [8]; [20]) was 0 and the “Plant response rating, Barnyardgrass” value (barnyardgrass [9]; [21]) was 10. For the same compound, the “Plant response rating, Crabgrass, Large” value (large (Lg) crabgrass [10]; [21]) was 30, the “Plant response rating, Foxtail, Giant” value (giant foxtail [11]; [21]) was 10 and the “Plant response rating, Morningglory” value (morningglory [12]; [21]) was 30. For the same compound, the “Plant response rating, Pigweed” value (pigweed [13]; [21]) was 70, the “Plant response rating, Velvetleaf” value (velvetleaf [14]; [21]) was 60 and the “Plant response rating, Wheat” value (wheat [15]; [21]) was 0. For the same compound, the “Plant response rating, Corn” value (corn [16]; [21]) was 0, the “Plant response rating, Rice” value (rice) was 0 and the “Plant response rating, Sedge, Umbrella” value (sedge, umbrella) was 0. For the same compound, the “Plant response rating, Ducksalad” value (Heteranthera limosa) was 0 and the “Plant response rating, Barnyardgrass” value (barnyardgrass [17]) was 0.
